Assays:
PLD = settings: read-out: IC50 (PLD, indirect inhibitor); cited from earlier work
[1] = target: PLD2 (HEK293-gfpPLD2 cells) (Homo sapiens, UniProt O14939); experiment: Endogenous PLD activity assay; assay type: cell-based
[2] = tested on: 4T1 mouse metastatic breast cancer line; experiment: Transwell matrigel invasion assay, 4T1; assay type: cell-based; settings: 48 h
[3] = tested on: MDA-231 human breast cancer cell line; experiment: Transwell matrigel invasion assay, MDA-231; assay type: cell-based; settings: MDA-231, 20 µM, 48 h
PMT cells = experiment: Transwell matrigel invasion assay, PMT; assay type: cell-based, mouse; settings: 20 µM, 48 h
human PLD1b = settings: read-out: IC50 human PLD1b; in vitro; cited from earlier work
[4] = tested on: non-HKD-containing bacterial (Streptomyces chromofuscus) PLD; settings: read-out: IC50 S. chromofuscus PLD; in vitro; cited from earlier work
rat PLD1.d311 = target: T1, rat PLD1.d311 (Rattus norvegicus, UniProt P70496); settings: no noticeable difference between the two
T1 sequence (P70496 312-1036 isoform P70496-2): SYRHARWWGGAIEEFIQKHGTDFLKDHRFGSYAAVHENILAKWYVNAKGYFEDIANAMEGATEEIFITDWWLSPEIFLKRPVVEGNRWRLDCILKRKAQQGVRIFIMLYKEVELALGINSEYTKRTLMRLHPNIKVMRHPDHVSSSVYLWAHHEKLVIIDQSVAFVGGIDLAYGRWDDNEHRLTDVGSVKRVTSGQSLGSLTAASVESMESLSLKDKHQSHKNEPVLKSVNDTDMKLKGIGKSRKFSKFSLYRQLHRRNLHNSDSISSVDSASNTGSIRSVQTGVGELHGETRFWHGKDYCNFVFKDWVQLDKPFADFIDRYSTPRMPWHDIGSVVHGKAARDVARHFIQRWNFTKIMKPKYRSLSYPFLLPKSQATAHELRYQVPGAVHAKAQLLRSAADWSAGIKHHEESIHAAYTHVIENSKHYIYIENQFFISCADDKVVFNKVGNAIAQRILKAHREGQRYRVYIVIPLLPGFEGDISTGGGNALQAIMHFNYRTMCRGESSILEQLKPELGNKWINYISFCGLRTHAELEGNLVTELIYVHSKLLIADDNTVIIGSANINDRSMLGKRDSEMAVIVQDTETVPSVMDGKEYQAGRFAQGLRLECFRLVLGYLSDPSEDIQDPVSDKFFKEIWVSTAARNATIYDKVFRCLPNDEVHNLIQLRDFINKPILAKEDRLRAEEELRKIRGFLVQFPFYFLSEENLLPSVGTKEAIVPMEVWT

PLD2 (HEK293-gfpPLD2 cells), sequence (O14939 whole entry): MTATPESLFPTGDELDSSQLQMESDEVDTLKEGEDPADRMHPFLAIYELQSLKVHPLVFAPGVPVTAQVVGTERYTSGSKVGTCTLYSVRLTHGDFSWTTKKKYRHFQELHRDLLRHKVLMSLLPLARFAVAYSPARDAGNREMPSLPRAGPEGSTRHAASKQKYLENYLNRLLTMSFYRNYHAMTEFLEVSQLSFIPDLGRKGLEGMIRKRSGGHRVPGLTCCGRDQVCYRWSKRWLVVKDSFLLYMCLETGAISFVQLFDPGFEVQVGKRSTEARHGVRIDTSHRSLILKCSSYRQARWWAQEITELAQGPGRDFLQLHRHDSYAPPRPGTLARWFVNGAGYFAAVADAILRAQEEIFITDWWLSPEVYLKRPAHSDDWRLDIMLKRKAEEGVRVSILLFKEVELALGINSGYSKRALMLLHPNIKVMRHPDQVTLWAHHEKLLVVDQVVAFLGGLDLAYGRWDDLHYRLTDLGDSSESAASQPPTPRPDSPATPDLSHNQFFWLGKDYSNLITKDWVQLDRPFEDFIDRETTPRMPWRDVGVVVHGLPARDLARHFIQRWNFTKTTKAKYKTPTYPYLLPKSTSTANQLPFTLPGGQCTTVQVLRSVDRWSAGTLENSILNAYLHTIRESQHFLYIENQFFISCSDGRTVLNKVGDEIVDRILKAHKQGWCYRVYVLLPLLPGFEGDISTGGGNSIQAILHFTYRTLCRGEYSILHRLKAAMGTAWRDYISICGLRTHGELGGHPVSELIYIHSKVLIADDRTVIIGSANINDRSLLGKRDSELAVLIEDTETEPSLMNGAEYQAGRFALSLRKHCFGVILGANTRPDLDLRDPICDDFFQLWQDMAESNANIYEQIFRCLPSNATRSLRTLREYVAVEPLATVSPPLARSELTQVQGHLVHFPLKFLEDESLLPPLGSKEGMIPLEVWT

SMILES: Oc1ccc(/C=C/c2cc(O)cc(O)c2)cc1 [resveratrol]
- IC50 (PLD): > 60000 nM

SMILES: O=C(NCCN1CCC2(CC1)C(=O)NCN2c1ccccc1)c1ccc(C(F)(F)F)cc1 [Compound 70]
- IC50 [1]: > 20000 nM

SMILES: O=C(NCCN1CCC(n2c(=O)[nH]c3ccccc32)CC1)[C@@H]1C[C@H]1c1ccccc1 [Compound 58]
- Invasive migration in transwell invasion assay ([2]; 4T1, 200 nM): significantly decreased cell migration
- Invasive migration in transwell invasion assay ([2]; 4T1, 20 µM): significantly decreased cell migration
- Invasive migration in transwell invasion assay [3]: significantly decreased cell migration
- Invasive migration in transwell invasion assay (PMT cells): significantly decreased cell migration

SMILES: CC(C)=CCC/C(C)=C/CC/C(C)=C/C1C(COP(=O)(O)OP(=O)(O)O)C1(C)CC/C=C(\C)CCC=C(C)C (stereo in doubt) [presqualene diphosphate]
- IC50 (human PLD1b): > 1000 nM
- IC50 [4]: 100 nM

SMILES: O=C(NCCN1CCC(n2c(=O)[nH]c3ccccc32)CC1)c1ccc2ccccc2c1 [Compound 56]
- Invasive migration in transwell invasion assay ([2]; 4T1, 20 µM): significantly (P < 0.05) decrease
- Invasive migration in transwell invasion assay [3]: significantly (P < 0.05) decrease
- Invasive migration in transwell invasion assay (PMT cells): significantly (P < 0.05) decrease

SMILES: C[C@@H](CN1CCC(n2c(=O)[nH]c3cc(Cl)ccc32)CC1)NC(=O)c1ccc2ccccc2c1 [Compound 69]
- Invasive migration in transwell invasion assay ([2]; 4T1, 200 nM): significantly decreased cell migration
- Invasive migration in transwell invasion assay ([2]; 4T1, 20 µM): significantly decreased cell migration
- Invasive migration in transwell invasion assay [3]: significantly decreased cell migration
- Invasive migration in transwell invasion assay (PMT cells): significantly decreased cell migration

SMILES: O=C(NCCN1CCC(n2c(=O)[nH]c3ccccc32)CC1)c1cc(Br)c(Br)o1 [Compound 64]
- Inhibition of basal and myr-Arf-1-stimulated activity of purified PLD1.d311 (rat PLD1.d311): directly inhibited

SMILES: O=C(NCCN1CCC2(CC1)C(=O)NCN2c1ccccc1)c1ccc2ccccc2c1 [Compound 72]
- Invasive migration in transwell invasion assay ([2]; 4T1, 20 µM): significantly decreased cell migration
- Invasive migration in transwell invasion assay [3]: significantly decreased cell migration
- Invasive migration in transwell invasion assay (PMT cells): significantly decreased cell migration

SMILES: O=C(c1ccc(Cl)cc1)N(CCN1CCC2(CC1)C(=O)NCN2c1ccccc1)C(=O)c1ccc(Cl)cc1 [Compound 82]
- Invasive migration in transwell invasion assay ([2]; 4T1, 20 µM): significantly decreased cell migration
- Invasive migration in transwell invasion assay [3]: significantly decreased cell migration
- Invasive migration in transwell invasion assay (PMT cells): significantly decreased cell migration

Reference: publication PMC3798018 (Nature chemical biology, 2009)
